Where two headings read alike, the source gives them in different places.
What was measured:
DGKα = DGKα (Homo sapiens (Human), UniProt P23743); assay: biochemical; assay type: biochemical; conditions: liposome (LIPGLO) assay; read-out: DGKα LIPGLO IC50
human DGKζ = human DGKζ (Homo sapiens (Human), UniProt Q13574); assay: biochemical; assay type: biochemical; conditions: liposome (LIPGLO) assay
[1] = test system: Human venous whole blood (IFN-γ); assay: Human whole blood IFN-γ assay; assay type: cell-based
Experimental: Assay 10: Human Whole Blood IFN-γ Assay
Human venous whole blood (22.5 μL per well), obtained from healthy donors, was pre-treated with compounds for one hour at 37° C. in a humidified 95% air/5% CO2 incubator. The blood was stimulated with 2.5 μL anti-human CD3 and anti-CD28 mAb at a final concentration of 1 μg/mL each for 24 hours at 37° C. IFN-γ in the supernatants was measured using AlphLISA kit (Cat #AL217).

[2] = test system: human venous whole blood, CD8 positive population (pERK); assay: DGK human whole blood pERK assay; assay type: cell-based; conditions: read-out: DGK HWB pERK IC50
In short: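 Heparinized whole blood from healthy donors preincubated with compound 1 hour at 37° C. Stimulation used anti-CD3 at 1 μg/mL final plus cross-linking goat anti-mouse IgG for 15 minutes. Flow cytometry scored percentage pERK-positive cells among CD8-positive cells.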

Human DGKα(9-727) = Human DGKα(9-727) (Homo sapiens (Human), UniProt P23743); assay: biochemical; conditions: read-out: DGKα
Chain of Human DGKα(9-727) (P23743 whole entry, looked up): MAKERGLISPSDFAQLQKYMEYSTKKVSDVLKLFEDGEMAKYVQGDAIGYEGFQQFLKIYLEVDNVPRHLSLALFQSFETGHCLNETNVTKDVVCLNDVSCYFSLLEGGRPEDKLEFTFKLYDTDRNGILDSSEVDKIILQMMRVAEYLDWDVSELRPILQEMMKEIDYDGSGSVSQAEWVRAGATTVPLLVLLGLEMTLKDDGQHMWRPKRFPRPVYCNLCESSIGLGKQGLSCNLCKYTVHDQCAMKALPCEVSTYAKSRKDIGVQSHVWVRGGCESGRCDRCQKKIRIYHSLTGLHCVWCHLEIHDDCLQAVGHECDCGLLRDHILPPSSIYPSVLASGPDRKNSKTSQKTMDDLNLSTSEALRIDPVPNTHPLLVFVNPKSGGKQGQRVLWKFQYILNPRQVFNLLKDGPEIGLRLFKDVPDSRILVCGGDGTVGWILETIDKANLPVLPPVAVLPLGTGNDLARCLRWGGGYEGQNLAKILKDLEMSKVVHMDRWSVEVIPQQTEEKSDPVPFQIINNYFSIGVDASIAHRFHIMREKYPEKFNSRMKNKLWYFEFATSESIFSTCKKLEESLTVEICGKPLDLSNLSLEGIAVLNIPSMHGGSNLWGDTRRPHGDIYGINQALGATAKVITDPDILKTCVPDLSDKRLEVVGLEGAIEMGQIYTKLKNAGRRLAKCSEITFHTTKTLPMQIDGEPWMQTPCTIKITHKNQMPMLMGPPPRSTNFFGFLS

[3] = Table A, liposome (LIPGLO) assay
[4] = human whole blood IFN-γ, read-out: INFg Whole Blood
[5] = human whole blood, anti-CD3 plus anti-CD28, 24 hours, read-out: INFg Whole Blood Normalized Agonist EC50
[6] = human whole blood, CD8 positive population
[7] = Homo sapiens, 24 h, human whole blood, anti-CD3 plus anti-CD28, 24 hours, read-out: INFg Whole Blood Normalized Agonist EC50

Chain of DGKα (P23743 whole entry, looked up): as above
Chain of human DGKζ (Q13574 whole entry, looked up): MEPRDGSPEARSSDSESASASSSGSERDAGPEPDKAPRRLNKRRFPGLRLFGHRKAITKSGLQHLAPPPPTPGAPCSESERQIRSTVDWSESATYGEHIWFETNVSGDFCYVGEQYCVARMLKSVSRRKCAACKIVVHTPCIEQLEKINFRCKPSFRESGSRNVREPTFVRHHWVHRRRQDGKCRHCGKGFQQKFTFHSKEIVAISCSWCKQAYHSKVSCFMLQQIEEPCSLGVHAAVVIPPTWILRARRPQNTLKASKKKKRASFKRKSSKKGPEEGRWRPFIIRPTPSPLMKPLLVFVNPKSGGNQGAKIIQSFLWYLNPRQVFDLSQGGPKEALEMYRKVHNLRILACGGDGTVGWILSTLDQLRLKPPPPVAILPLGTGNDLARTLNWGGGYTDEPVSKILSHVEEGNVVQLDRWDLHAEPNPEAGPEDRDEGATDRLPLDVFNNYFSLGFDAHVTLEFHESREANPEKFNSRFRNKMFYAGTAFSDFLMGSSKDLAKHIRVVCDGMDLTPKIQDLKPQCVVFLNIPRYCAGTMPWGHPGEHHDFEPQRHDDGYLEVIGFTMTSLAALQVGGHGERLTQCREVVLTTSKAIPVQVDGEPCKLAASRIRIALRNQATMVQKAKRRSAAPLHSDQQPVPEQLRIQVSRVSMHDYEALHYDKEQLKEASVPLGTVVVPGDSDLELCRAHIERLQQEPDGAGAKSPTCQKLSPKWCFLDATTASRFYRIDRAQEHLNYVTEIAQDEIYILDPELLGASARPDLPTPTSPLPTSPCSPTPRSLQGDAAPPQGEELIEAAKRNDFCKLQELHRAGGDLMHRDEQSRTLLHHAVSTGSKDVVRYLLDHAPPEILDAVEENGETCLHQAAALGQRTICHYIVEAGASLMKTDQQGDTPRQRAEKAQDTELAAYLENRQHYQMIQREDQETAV

Work on CC[C@@H]1CN(c2cc(=O)n(C)c3ccc(C#N)nc23)CC[C@@H]1Oc1cccc(C(C)(C)C)c1 [Example 167, 8-((3R,4S)-4-(3-(tert-butyl)phenoxy)-3-ethylpiperidin-1-yl)-5-methyl-6-oxo-5,6-dihydro-1,5-naphthyridine-2-carbonitrile] yielded an IC50 (DGKα) of 0.12 µM, an IC50 (human DGKζ; read-out: DGKζ LIPGLO IC50) of 1 µM and an EC50 ([1]; read-out: INFg Whole Blood Normalized Agonist EC50, human whole blood, anti-CD3 plus anti-CD28, 24 hours) of 1.6 µM. It also gave an IC50 ([2]; Homo sapiens, CD8 positive) of 2 µM.

For CCO[C@@H]1CN(c2cc(=O)n(C)c3ccc(C#N)nc23)CC[C@H]1Oc1cccc(C(F)(F)F)c1 [Example 264, 8-((3R,4R)-3-ethoxy-4-(3-(trifluoromethyl)phenoxy)piperidin-1-yl)-5-methyl-6-oxo-5,6-dihydro-1,5-naphthyridine-2-carbonitrile], the IC50 (human DGKζ; Table A, read-out: DGKζ) was 17 µM, the IC50 (Human DGKα(9-727); [3]) was 4 µM and the EC50 [1, 4] was 6.5 µM.

In the case of CC1CN(c2cc(=O)n(C)c3ccc(C#N)nc23)CCC1N(C)C(=O)c1ccc(F)cc1 (single isomer, unassigned) [Example 287, N-(1-(6-Cyano-1-methyl-2-oxo-1,2-dihydro-1,5-naphthyridin-4-yl)-3-methylpiperidin-4-yl)-4-fluoro-N-methylbenzamide], the IC50 (human DGKζ; Table A, read-out: DGKζ) is reported as 7.4 µM and the IC50 (Human DGKα(9-727)) is reported as 3.2 µM.

With CC(C)c1ccc(O[C@H]2CCN(c3cc(=O)n(C)c4ccc(C#N)nc34)C[C@H]2C)cc1 (single isomer, unassigned) [Example 178] the IC50 (DGKα) was 0.062 µM, the IC50 (human DGKζ; read-out: DGKζ LIPGLO IC50) was 0.53 µM and the EC50 [1, 5] was 4.6 µM. For the same compound, the IC50 [2, 6] was 2.3 µM.

Work on COc1ccc(NC2C[C@H](C)N(c3cc(=O)n(C)c4ccc(C#N)nc34)C[C@H]2C)nc1 (single isomer, unassigned) [Example 281] yielded an IC50 (human DGKζ; Table A, read-out: DGKζ) of 2.8 µM, an IC50 (Human DGKα(9-727); [3]) of 2.7 µM and an EC50 [1, 4] of 9.8 µM.

With CO[C@@H]1CN(c2nc(=O)n(C)c3ccc(C#N)nc23)CC[C@H]1Oc1cccc(C(F)(F)F)c1 (single isomer, unassigned) [Example 277] the IC50 (human DGKζ; Table A, read-out: DGKζ) was 3.9 µM and the IC50 (Human DGKα(9-727); [3]) was 4.9 µM.

Cn1c(=O)nc(N2CC[C@@H](Oc3cccc(C(F)(F)F)c3)[C@H](O)C2)c2nc(C#N)ccc21 (single isomer, unassigned) [Example 274, (+/−)-trans-4-(3-hydroxy-4-(3-(trifluoromethyl)phenoxy)piperidin-1-yl)-1-methyl-2-oxo-1,2-dihydropyrido[3,2-d]pyrimidine-6-carbonitrile] was tested, and the IC50 (human DGKζ; Table A, read-out: DGKζ) was 15 µM, the IC50 (Human DGKα(9-727); [3]) was 14 µM and the EC50 ([1]; Homo sapiens, human whole blood IFN-γ, read-out: INFg Whole Blood) was 8.2 µM.

With Cn1c(=O)cc(N2CC[C@H](Oc3cccc(C(F)(F)F)c3)[C@@H](O)C2)c2nc(C#N)ccc21 (racemic) [Example 260, (±)-trans-8-(3-hydroxy-4-(3-(trifluoromethyl)phenoxy)piperidin-1-yl)-5-methyl-6-oxo-5,6-dihydro-1,5-naphthyridine-2-carbonitrile] the IC50 (human DGKζ; Table A, read-out: DGKζ) was 140 µM and the IC50 (Human DGKα(9-727)) was 1.9 µM.

Compound CO[C@H]1CN(c2cc(=O)n(C)c3ccc(C#N)nc23)CC[C@@H]1Oc1ccc(OC(C)C)cn1 (single isomer, unassigned) [Example 270, (±)-trans-8-(4-((5-isopropoxypyridin-2-yl)oxy)-3-methoxypiperidin-1-yl)-5-methyl-6-oxo-5,6-dihydro-1,5-naphthyridine-2-carbonitrile] has an IC50 (human DGKζ; Table A, read-out: DGKζ) of 12 µM and an IC50 (Human DGKα(9-727); [3]) of 2.4 µM.

For Cn1c(=O)nc(N2CC[C@@H](Oc3cccc(C(F)(F)F)c3)[C@H](O)C2)c2nc(Cl)ccc21 (racemic) [Example 272, (+/−)-trans-6-chloro-4-(3-hydroxy-4-(3-(trifluoromethyl)phenoxy)piperidin-1-yl)-1-methylpyrido[3,2-d]pyrimidin-2(1H)-one], the IC50 (human DGKζ; Table A, read-out: DGKζ) was 24 µM, the IC50 (Human DGKα(9-727); [3]) was 19 µM and the EC50 [1, 4] was 16 µM.

Compound CC[C@@H]1CN(c2cc(=O)n(C)c3ccc(C#N)nc23)CC[C@@H]1Oc1cccc(C(F)(F)F)c1 [Example 168] has an IC50 (DGKα) of 1 µM, an IC50 (human DGKζ; read-out: DGKζ LIPGLO IC50) of 0.89 µM and an EC50 [1, 5] of 1.6 µM. The IC50 [2, 6] was 3.7 µM.

CC(C)c1ccc(O[C@@H]2CCN(c3cc(=O)n(C)c4ccc(C#N)nc34)C[C@H]2C)cc1 [Example 94, 8-((3R,4R)-4-(4-isopropylphenoxy)-3-methylpiperidin-1-yl)-5-methyl-6-oxo-5,6-dihydro-1,5-naphthyridine-2-carbonitrile] was tested, and the IC50 (DGKα) was 0.08 µM, the IC50 (human DGKζ; read-out: DGKζ LIPGLO IC50) was 6.1 µM and the EC50 [1, 7] was 1.1 µM. For the same compound, the IC50 [2, 6] was 3.9 µM.

In the case of Cc1nccc(OC2CCN(c3cc(=O)n(C)c4ccc(C#N)nc34)CC2)n1 [Example 72, 5-methyl-8-(4-((2-methylpyrimidin-4-yl)oxy)piperidin-1-yl)-6-oxo-5,6-dihydro-1,5-naphthyridine-2-carbonitrile], the IC50 (DGKα) is reported as 4.2 µM, the IC50 (human DGKζ; read-out: DGKζ LIPGLO IC50) is reported as 39 µM and the EC50 [1, 7] is reported as 20 µM. It also gave an IC50 [2, 6] of 20 µM.

Reference: patent US11964973B2 (priority 2019, dated 2024)
